Test results reported in ChEMBL document CHEMBL4507318, “Data for DCP probe BAY-985” (2021).

How the values were obtained:
[1] = biological target: Cyclin-dependent kinase 14 (Homo sapiens) (UniProt O94921)
[2] = biological target: Mitogen-activated protein kinase 6 (Homo sapiens) (UniProt Q16659)
[3] = biological target: Serine/threonine-protein kinase 16 (Homo sapiens) (UniProt O75716)
[4] = biological target: TGF-beta receptor type-2 (Homo sapiens) (UniProt P37173)
[5] = biological target: Membrane-associated tyrosine- and threonine-specific cdc2-inhibitory kinase (Homo sapiens) (UniProt Q99640)
[6] = system: Receptor-type tyrosine-protein kinase FLT3 (Homo sapiens), P36888 [D835Y]
[7] = biological target: Macrophage colony-stimulating factor 1 receptor (Homo sapiens) (UniProt P07333)
[8] = biological target: Tyrosine-protein kinase FRK (Homo sapiens) (UniProt P42685)
[9] = biological target: Testis-specific serine/threonine-protein kinase 1 (Homo sapiens) (UniProt Q9BXA7)
[10] = biological target: Mitogen-activated protein kinase kinase kinase 20 (Homo sapiens) (UniProt Q9NYL2)
[11] = biological target: Kappa-type opioid receptor (Homo sapiens) (UniProt P41145); details: Compound concentration 10.0 uM
[12] = biological target: Mitotic checkpoint serine/threonine-protein kinase BUB1 (Homo sapiens) (UniProt O43683)
[13] = biological target: Mitogen-activated protein kinase 3 (Homo sapiens) (UniProt P27361)
[14] = biological target: MAP kinase-interacting serine/threonine-protein kinase 1 (Homo sapiens) (UniProt Q9BUB5)
[15] = biological target: High affinity nerve growth factor receptor (Homo sapiens) (UniProt P04629)
[16] = biological target: Serine/threonine-protein kinase PAK 5 (Homo sapiens) (UniProt Q9P286)
[17] = biological target: Cyclin-dependent kinase 7 (Homo sapiens) (UniProt P50613)
[18] = biological target: Tyrosine-protein kinase ITK/TSK (Homo sapiens) (UniProt Q08881)
[19] = biological target: Activin receptor type-1 (Homo sapiens) (UniProt Q04771)
[20] = biological target: Serine/threonine-protein kinase ULK1 (Homo sapiens) (UniProt O75385)
[21] = biological target: Myotonin-protein kinase (Homo sapiens) (UniProt Q09013)
[22] = biological target: Wee1-like protein kinase (Homo sapiens) (UniProt P30291)
[23] = biological target: Protein kinase C eta type (Homo sapiens) (UniProt P24723)
[24] = biological target: Cyclin-dependent kinase 2 homolog (Plasmodium falciparum (isolate 3D7)) (UniProt P61075)
[25] = biological target: Dual specificity tyrosine-phosphorylation-regulated kinase 1B (Homo sapiens) (UniProt Q9Y463)
[26] = biological target: Epithelial discoidin domain-containing receptor 1 (Homo sapiens) (UniProt Q08345)
[27] = biological target: Histamine H3 receptor (Homo sapiens) (UniProt Q9Y5N1); details: Compound concentration 10.0 uM
[28] = biological target: Cytoplasmic tyrosine-protein kinase BMX (Homo sapiens) (UniProt P51813)
[29] = biological target: Calcium/calmodulin-dependent protein kinase kinase 1 (Homo sapiens) (UniProt Q8N5S9)
[30] = biological target: 5-hydroxytryptamine receptor 5A (Homo sapiens) (UniProt P47898); details: Compound concentration 10.0 uM
[31] = biological target: 5-hydroxytryptamine receptor 1A (Homo sapiens) (UniProt P08908); details: Compound concentration 10.0 uM
[32] = biological target: Serine/threonine-protein kinase 38 (Homo sapiens) (UniProt Q15208)
[33] = biological target: Calcium/calmodulin-dependent protein kinase type II subunit gamma (Homo sapiens) (UniProt Q13555)
[34] = system: Tyrosine-protein kinase ABL1 (Homo sapiens), P00519 [H396P]
[35] = biological target: Serine/threonine-protein kinase 10 (Homo sapiens) (UniProt O94804)
[36] = biological target: Serine/threonine-protein kinase DCLK1 (Homo sapiens) (UniProt O15075)
[37] = biological target: Ephrin type-A receptor 4 (Homo sapiens) (UniProt P54764)
[38] = biological target: Serine/threonine-protein kinase 4 (Homo sapiens) (UniProt Q13043)
[39] = biological target: Mitogen-activated protein kinase kinase kinase 6 (Homo sapiens) (UniProt O95382)
[40] = biological target: Serine/threonine-protein kinase MRCK beta (Homo sapiens) (UniProt Q9Y5S2)
[41] = system: Tyrosine-protein kinase ABL1 (Homo sapiens), P00519 [T315I]
[42] = biological target: Serine/threonine-protein kinase Nek9 (Homo sapiens) (UniProt Q8TD19)
[43] = biological target: Phosphatidylinositol 3-kinase C2 domain-containing subunit gamma (Homo sapiens) (UniProt O75747)
[44] = biological target: Serine/threonine-protein kinase DCLK2 (Homo sapiens) (UniProt Q8N568)
[45] = system: Epidermal growth factor receptor (Homo sapiens), P00533 [T790M]
[46] = Compound concentration 1000.0 nM
[47] = Compound concentration 100.0 nM

Sequence of Serine/threonine-protein kinase DCLK1 (Homo sapiens) (O15075 whole entry): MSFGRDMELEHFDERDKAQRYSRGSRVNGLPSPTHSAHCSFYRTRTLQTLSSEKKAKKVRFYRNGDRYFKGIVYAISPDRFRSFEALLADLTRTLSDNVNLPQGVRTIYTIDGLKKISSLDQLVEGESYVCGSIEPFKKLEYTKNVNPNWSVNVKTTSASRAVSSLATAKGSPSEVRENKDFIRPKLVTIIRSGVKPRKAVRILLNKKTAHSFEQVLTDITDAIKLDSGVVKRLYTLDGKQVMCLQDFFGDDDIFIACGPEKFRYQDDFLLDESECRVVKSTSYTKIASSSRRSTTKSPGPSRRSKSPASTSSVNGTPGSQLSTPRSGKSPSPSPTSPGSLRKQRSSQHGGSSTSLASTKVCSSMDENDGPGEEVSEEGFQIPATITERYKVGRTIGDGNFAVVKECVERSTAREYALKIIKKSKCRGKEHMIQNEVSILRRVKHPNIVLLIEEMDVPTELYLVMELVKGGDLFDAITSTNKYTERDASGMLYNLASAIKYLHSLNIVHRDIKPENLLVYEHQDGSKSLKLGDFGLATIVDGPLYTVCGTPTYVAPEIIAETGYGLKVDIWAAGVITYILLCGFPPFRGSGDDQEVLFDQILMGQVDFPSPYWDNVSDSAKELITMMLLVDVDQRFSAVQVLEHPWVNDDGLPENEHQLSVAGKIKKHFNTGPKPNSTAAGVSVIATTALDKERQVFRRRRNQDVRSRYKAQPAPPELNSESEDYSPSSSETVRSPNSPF
Sequence of Dual specificity tyrosine-phosphorylation-regulated kinase 1B (Homo sapiens) (Q9Y463 whole entry, looked up, the tested form may be a part): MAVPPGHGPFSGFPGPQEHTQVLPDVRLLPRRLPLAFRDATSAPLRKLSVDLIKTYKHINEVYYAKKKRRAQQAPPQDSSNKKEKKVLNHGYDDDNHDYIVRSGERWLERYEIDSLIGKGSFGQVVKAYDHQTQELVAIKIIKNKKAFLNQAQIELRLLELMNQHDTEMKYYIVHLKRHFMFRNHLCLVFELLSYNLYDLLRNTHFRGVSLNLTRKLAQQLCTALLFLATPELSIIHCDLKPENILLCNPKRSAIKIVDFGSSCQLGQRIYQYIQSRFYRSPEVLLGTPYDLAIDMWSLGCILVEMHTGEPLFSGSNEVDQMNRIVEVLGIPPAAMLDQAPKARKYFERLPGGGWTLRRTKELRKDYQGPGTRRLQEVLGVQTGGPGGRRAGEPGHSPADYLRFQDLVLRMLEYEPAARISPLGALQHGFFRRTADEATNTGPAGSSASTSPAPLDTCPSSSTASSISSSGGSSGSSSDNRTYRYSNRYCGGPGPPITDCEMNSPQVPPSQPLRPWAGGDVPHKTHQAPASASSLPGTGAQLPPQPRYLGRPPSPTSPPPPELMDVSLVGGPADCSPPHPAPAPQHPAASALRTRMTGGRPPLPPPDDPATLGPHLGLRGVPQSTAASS
Sequence of Mitogen-activated protein kinase 6 (Homo sapiens) (Q16659 whole entry): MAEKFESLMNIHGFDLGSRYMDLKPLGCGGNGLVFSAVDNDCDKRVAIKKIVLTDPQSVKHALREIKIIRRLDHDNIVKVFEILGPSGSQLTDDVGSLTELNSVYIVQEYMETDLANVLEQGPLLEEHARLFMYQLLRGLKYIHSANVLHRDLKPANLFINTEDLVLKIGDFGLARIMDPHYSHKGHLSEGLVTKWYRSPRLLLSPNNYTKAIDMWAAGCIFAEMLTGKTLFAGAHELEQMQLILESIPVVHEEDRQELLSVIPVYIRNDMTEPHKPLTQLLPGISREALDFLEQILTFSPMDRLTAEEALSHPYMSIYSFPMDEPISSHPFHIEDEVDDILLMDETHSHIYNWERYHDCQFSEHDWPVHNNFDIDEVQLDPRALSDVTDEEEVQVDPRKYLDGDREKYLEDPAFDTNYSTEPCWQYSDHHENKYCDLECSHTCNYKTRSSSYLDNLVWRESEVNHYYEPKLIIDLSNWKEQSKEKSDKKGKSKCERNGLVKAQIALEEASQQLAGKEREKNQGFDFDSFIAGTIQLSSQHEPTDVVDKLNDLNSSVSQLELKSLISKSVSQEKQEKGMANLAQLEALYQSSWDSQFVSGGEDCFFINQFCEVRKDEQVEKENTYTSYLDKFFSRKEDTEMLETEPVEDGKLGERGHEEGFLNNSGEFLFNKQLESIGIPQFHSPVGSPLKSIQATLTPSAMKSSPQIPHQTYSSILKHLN
Sequence of Calcium/calmodulin-dependent protein kinase kinase 1 (Homo sapiens) (Q8N5S9 whole entry, looked up): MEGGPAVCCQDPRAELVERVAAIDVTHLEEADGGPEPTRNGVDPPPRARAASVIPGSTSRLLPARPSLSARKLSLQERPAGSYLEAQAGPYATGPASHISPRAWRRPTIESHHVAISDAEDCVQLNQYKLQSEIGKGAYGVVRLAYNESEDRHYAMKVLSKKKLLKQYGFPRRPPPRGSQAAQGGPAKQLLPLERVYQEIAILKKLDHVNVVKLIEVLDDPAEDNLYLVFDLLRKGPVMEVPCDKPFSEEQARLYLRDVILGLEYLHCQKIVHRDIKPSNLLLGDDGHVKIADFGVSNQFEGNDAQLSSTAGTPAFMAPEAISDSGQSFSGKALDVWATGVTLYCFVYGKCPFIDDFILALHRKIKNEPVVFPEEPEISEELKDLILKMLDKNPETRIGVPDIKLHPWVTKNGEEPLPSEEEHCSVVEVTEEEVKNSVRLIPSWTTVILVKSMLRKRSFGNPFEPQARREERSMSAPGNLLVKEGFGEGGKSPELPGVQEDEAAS
Sequence of Activin receptor type-1 (Homo sapiens) (Q04771 whole entry): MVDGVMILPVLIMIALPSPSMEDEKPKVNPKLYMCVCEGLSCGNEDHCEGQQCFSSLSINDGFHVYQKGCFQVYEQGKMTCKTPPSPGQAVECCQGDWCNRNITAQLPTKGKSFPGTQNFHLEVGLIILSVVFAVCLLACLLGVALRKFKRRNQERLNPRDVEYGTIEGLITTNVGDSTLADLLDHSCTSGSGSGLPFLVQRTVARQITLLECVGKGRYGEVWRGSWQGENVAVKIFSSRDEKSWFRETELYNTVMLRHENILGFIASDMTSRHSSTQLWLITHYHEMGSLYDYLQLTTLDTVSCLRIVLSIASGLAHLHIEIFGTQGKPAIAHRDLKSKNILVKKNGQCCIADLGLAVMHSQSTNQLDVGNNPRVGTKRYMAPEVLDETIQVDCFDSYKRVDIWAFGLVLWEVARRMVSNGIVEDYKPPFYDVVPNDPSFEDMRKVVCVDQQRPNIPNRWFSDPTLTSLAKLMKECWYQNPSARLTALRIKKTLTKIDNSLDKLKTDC
Sequence of MAP kinase-interacting serine/threonine-protein kinase 1 (Homo sapiens) (Q9BUB5 whole entry, looked up): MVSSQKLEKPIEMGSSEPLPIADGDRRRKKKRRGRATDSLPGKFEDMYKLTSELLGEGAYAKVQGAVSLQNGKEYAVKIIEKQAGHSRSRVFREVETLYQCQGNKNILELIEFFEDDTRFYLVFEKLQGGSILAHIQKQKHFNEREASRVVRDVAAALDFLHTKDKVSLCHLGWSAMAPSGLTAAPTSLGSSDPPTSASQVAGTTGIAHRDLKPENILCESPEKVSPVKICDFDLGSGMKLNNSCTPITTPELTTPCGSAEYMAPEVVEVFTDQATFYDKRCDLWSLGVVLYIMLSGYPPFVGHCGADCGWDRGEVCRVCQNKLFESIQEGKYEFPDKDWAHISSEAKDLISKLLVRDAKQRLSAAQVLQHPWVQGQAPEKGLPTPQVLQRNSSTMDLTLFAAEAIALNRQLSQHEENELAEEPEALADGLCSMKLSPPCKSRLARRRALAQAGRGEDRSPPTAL
Sequence of Calcium/calmodulin-dependent protein kinase type II subunit gamma (Homo sapiens) (Q13555 whole entry): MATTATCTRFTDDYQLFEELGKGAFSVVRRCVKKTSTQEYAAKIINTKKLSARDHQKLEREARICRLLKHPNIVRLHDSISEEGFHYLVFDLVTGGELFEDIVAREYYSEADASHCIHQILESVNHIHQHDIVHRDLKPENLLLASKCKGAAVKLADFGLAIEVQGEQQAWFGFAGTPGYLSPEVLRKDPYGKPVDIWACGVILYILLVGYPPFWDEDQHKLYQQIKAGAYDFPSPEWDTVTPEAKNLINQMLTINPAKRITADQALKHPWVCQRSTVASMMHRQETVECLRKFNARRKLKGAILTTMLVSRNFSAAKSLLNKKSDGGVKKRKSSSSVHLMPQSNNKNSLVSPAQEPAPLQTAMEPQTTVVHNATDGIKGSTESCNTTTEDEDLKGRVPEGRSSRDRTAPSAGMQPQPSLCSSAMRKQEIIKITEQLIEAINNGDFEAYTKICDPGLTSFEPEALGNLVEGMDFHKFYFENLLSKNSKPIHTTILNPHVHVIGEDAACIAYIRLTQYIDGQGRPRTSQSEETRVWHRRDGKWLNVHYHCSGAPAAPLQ
Sequence of Cyclin-dependent kinase 14 (Homo sapiens) (O94921 whole entry): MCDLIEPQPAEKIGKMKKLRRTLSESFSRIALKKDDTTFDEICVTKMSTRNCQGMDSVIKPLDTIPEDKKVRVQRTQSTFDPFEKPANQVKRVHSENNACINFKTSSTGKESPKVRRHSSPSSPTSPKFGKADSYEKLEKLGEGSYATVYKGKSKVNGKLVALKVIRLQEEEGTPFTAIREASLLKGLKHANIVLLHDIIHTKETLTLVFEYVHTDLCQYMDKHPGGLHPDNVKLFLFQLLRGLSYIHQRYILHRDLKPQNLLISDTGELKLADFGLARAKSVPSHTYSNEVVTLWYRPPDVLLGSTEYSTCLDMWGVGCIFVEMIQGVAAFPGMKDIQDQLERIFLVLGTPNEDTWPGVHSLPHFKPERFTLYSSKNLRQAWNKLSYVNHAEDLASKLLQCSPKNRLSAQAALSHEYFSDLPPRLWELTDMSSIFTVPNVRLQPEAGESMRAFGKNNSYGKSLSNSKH
Sequence of Cyclin-dependent kinase 7 (Homo sapiens) (P50613 whole entry): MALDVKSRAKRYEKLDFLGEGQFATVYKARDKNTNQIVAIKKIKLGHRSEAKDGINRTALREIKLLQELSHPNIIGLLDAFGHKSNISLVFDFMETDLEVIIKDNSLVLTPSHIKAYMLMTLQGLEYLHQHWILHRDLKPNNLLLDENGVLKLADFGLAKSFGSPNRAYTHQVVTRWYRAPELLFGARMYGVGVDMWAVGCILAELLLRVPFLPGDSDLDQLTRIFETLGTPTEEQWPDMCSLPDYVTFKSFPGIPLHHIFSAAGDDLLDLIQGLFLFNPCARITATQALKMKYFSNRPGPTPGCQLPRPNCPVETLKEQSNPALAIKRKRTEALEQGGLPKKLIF

CN(C)c1ncnc(-c2ccc3nc(Nc4cc(CN5CCN(C(=O)CC(F)(F)F)CC5)ccn4)[nH]c3c2)c1Cl [BAY-440] gave a residual activity [1, 46] of 100%, a residual activity [2, 46] of 100% and a residual activity [3, 46] of 100%. It also gave a residual activity [4, 46] of 85%, a residual activity [5, 46] of 75% and a residual activity [6, 46] of 38%. It also gave a residual activity [7, 46] of 100%, a residual activity [8, 46] of 85% and a residual activity [9, 46] of 100%. For the same molecule, the residual activity [10, 46] was 65%, the inhibition [11] was 33.7% and the residual activity [12, 46] was 94%. It also gave a residual activity [13, 46] of 100%, a residual activity [14, 46] of 62% and a residual activity [15, 46] of 38%. The residual activity [16, 46] was 85%, the residual activity [17, 46] was 80% and the residual activity [18, 46] was 100%. It also gave a residual activity [19, 46] of 88%, a residual activity [20, 46] of 75% and a residual activity [21, 46] of 91%. For the same molecule, the residual activity [22, 46] was 100%, the residual activity [23, 46] was 100% and the residual activity [24, 46] was 85%. The residual activity [25, 46] was 100%, the residual activity [26, 46] was 75% and the inhibition [27] was 4.68%. It also gave a residual activity [28, 46] of 100%, a residual activity [29, 46] of 100% and an inhibition [30] of 23.6%. The inhibition [31] was 13.9%, the residual activity [32, 46] was 80% and the residual activity [33, 46] was 100%. The residual activity [34, 46] was 44%, the residual activity [35, 46] was 54% and the residual activity [36, 46] was 92%. For the same molecule, the residual activity [37, 46] was 92%, the residual activity [38, 46] was 95% and the residual activity [39, 46] was 87%. The residual activity [40, 46] was 96%, the residual activity [41, 46] was 46% and the residual activity [42, 46] was 100%. It also gave a residual activity [43, 46] of 83%, a residual activity [44, 46] of 100% and a residual activity [45, 46] of 100%.

C[C@H](c1ccnc(Nc2nc3ccc(-c4cc(N(C)C)ncn4)cc3[nH]2)c1)N1CCN(C(=O)CC(F)(F)F)CC1 [BAY-985] showed a residual activity [1, 47] of 100%, a residual activity [2, 47] of 86% and a residual activity [3, 47] of 86%. The residual activity [4, 47] was 98%, the residual activity [5, 47] was 83% and the residual activity [6, 47] was 41%. For the same molecule, the residual activity [7, 47] was 100%, the residual activity [8, 47] was 92% and the residual activity [9, 47] was 100%. The residual activity [10, 47] was 98%, the inhibition [11] was 4.24% and the residual activity [12, 47] was 95%. For the same molecule, the residual activity [13, 47] was 89%, the residual activity [14, 47] was 92% and the residual activity [15, 47] was 79%. For the same molecule, the residual activity [16, 47] was 100%, the residual activity [17, 47] was 93% and the residual activity [18, 47] was 100%. It also gave a residual activity [19, 47] of 100%, a residual activity [20, 47] of 95% and a residual activity [21, 47] of 100%. It also gave a residual activity [22, 47] of 96%, a residual activity [23, 47] of 84% and a residual activity [24, 47] of 100%. The residual activity [25, 47] was 84%, the residual activity [26, 47] was 100% and the inhibition [27] was -3.83%. It also gave a residual activity [28, 47] of 100%, a residual activity [29, 47] of 89% and an inhibition [30] of 11.9%. The inhibition [31] was 6.47%, the residual activity [32, 47] was 100% and the residual activity [33, 47] was 77%. For the same molecule, the residual activity [34, 47] was 87%, the residual activity [35, 47] was 86% and the residual activity [36, 47] was 96%. For the same molecule, the residual activity [37, 47] was 98%, the residual activity [38, 47] was 100% and the residual activity [39, 47] was 100%. It also gave a residual activity [40, 47] of 100%, a residual activity [41, 47] of 100% and a residual activity [42, 47] of 100%. The residual activity [43, 47] was 94%, the residual activity [44, 47] was 85% and the residual activity [45, 47] was 100%.
